Patent publication US20230097883A1, “ERGOTHIONEINE PET COMPOUNDS AND METHODS OF USE THEREOF” (VANDERBILT UNIVERSITY, priority 2021, published 2023)

Columns and labels:
Abeta = experiment: [11C]PIB PET imaging of Abeta levels after ERGO treatment; type: in vivo, mouse
Experimental: (§1) To address our primary question whether longitudinal consumption of ERGO as a potent antioxidant benefit the brain, three cohorts of animals (n=12 non-treated WT control, n=12 non-treated 5XFAD, and n=18 ERGO-treated 5XFAD) were used (FIG. 3.2A). Starting at the age of 8 weeks, the animals were treated with high doses of ERGO solution (25-50 mg/Kg) formulated in double distilled (dd) water via oral gavage three times a week over the course of eight weeks. To reduce bias in the behavioral experiments with regard to the potential stress during gavage treatment, non-treated animals underwent the identical gavage process with the vehicle, water, only. The efficacy of the therapy was evaluated by behavioral testing, followed by three different non-invasive PET imaging sessions to assess biomarkers related to AD pathology. […]
Non-invasive, in vivo, and robust assessment of Abeta levels in the brains of treated and non-treated 5XFAD mice were performed using the [^11C]PIB PET probe, the chemical structure of which has been described elsewhere. […] We co-registered the PET/CT image to an MRI template for quantitative PET analysis of regional uptake in the brain. […]

5XFAD mice = experiment: Conditioned fear task after ERGO treatment; type: in vivo, mouse; conditions: ERGO-treated 5XFAD mice, novel context, 25 hours following training
Experimental: as §1, with “pathology. In addition to assessing Abeta levels and glucose metabolism using the [^11C]PIB and [^18F]FDG probes, respectively; we also tested for the first time whether oxidative stress could be used as an indicator of response to therapy using the [^11C]ERGO PET radioligand. Finally, animals were euthanized, and the brains were collected for immunohistochemical analysis.” for “pathology.”
Mice were placed in a sound-attenuating chamber with a wire grid floor capable of transmitting an electric shock. All movements were monitored by cameras fixed to the inside of the doors. […]

[1] = Ferrous ion chelating (FIC) assay; type: biochemical; conditions: increasing ERGO concentrations
From the text: We also assessed ERGO's transition metal scavenging using cupric ion chelating (CIC) and ferrous ion chelating (FIC) assays. In these experiments, pyrocatechol violet or ferrozine forms a complex with free Cu(II) or Fe(II), respectively, resulting in a chromophore with a strong absorbance signal. The pyrocatechol violet-COI) complex has an absorbance lambda max (λmax) at 630 nm, and ferrozine-Fe(II) has a λmax at 562 nm. In the presence of ERGO, fewer free metals are available to form these complexes, resulting in less absorbance.
The iron chelating activity of ERGO was determined using a FIC assay, which was obtained from Zen-Bio Inc. (Durham, N.C.). The assay was done on a 96-well plate with triplicated samples, standards, background, and max absorbance wells. All of the assay absorbance values were subtracted from the average background absorbance, comprising of water and assay buffer (1:1). Maximal absorbance was measured by averaging the absorbance values of 3 wells containing only FeSO4 and assay buffer. […] The assaying plate was incubated at room temperature for 10 minutes then the plate was read at 562 nm using a Biotek Synergy 4 plate reader. Absorbances were averaged, and the background absorbance was subtracted from the sample and maximum averages (Abstest and Absmax). […]

C[N+](C)(C)[C@@H](Cc1c[nH]c(=S)[nH]1)C(=O)[O-] [ERGO, L-ergothioneine]
[11C]PIB PET signal in brain (Abeta; ERGO-treated 5XFAD, 4-month-old, n=7, ~15 MBq [11C]PIB): very weak, and resembled the background signal found in WT mice
[11C]PIB % ID/g higher in non-treated 5XFAD compared to treated counterparts, every brain subregion (Abeta; non-treated n=5 versus ERGO-treated n=7 5XFAD mice): 30-50%
cue-based recall, freezing time while the cue was played (5XFAD mice): ~50%
absorbance signal of ferrozine-Fe(II) complex [1]: decreased as the concentrations of ERGO increased in a dose-dependent fashion
